Measurements published in patent US9926340B2, “NAD analogs and methods of using said NAD analogs in determining ribosylation of proteins with PARP mutants” (The Board of Regents of the University of Texas System, priority 2015, dated 2018).

Biological target: T1, PARP-1 (Homo sapiens, UniProt P09874)
T1 construct: His10; made in house; host or cells: E. coli BL21(DE3) (inferred)
Assay: PARP-1 enzyme kinetics assay (LC-HPLC of nicotinamide formation)
Assay type: biochemical
Conditions: 250 nM PARP-1, 10-500 μM analog; data not shown
Method: The enzyme kinetics of wild-type and analog-sensitive mutants of human PARP-1 were determined essentially as previously described (Jiang et al., 2010). Purified PARP-1 proteins were incubated for 5 minutes in PARP Enzyme Kinetics Buffer (50 mM Tris.HCl, pH 7.9, 4 mM MgCl2) containing 0.5 mg/mL sonicated salmon sperm DNA (Stratagene) at 25° C. with 10, 20, 30, 50, 100, 250, and 500 μM NAD^+ or 8-Bu(3-yne)T-NAD^+. The concentrations of the purified PARP-1 proteins were (1) 25 nM for PARP-1 with NAD^+, (2) 50 nM for PARP-1(L877A) with NAD^+, and […] 250 nM for PARP-1 and PARP-1(L877A) with 8-bu(3-yne)T-NAD^+. The reactions were brought to 450 mM perchloric acid (HClO4) to stop them, incubated for 5 minutes on ice, and then brought to […] potassium carbonate (K2CO3) to quench them. The quenched reactions were centrifuged at maximum speed in a microcentrifuge at 4° C., and the supernatant containing small molecules from the automodification reaction was collected.
The supernatants from the extracted ADP-ribosylation reactions were analyzed using a Shimadzu LCMS-QP8000α with a Phenomenex Kinetex C18 column (150×4.6 mm, 5 μm XB-C18 100A) monitored at 260 nm. […] Quantitative values for the small molecules and metabolites were obtained by comparison to a standard curve. […]

T1 sequence (P09874 whole entry): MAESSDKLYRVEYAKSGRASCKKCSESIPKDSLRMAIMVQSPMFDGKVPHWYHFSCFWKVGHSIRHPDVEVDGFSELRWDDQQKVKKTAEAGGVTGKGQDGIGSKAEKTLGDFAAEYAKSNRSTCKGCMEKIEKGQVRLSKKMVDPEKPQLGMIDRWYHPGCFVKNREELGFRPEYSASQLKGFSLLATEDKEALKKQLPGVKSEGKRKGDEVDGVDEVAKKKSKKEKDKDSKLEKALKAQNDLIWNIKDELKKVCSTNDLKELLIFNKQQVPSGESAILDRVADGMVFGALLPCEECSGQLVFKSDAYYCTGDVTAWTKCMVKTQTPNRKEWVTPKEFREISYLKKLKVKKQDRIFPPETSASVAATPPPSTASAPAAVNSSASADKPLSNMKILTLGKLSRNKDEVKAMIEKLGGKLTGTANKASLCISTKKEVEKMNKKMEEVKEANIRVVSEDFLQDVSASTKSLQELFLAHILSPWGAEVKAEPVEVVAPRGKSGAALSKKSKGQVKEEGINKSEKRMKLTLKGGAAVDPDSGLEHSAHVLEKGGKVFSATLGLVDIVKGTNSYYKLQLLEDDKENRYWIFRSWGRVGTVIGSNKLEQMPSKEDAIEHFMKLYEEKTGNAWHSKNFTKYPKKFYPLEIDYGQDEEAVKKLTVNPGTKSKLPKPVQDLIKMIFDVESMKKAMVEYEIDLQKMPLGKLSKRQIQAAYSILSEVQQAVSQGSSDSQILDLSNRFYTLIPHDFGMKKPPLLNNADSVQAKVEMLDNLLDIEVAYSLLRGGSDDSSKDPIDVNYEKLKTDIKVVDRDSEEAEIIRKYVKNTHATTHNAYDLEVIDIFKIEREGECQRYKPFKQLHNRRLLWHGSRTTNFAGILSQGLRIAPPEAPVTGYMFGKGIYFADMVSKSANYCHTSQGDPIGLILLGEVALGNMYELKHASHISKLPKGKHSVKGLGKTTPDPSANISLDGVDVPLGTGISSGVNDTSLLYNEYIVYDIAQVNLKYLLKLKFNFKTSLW

SMILES: C#CCCSc1nc2c(N)ncnc2n1[C@@H]1O[C@H](COP(=O)(O)OP(=O)(O)OC[C@H]2O[C@@H]([n+]3cccc(C(N)=O)c3)C(O)C2O)[C@H](O)C1O (stereo partly shown) [8-Bu(3-yne)T-NAD^+]
- saturation of PARylation activity: No saturation was detectable
